Measured values published in patent US9193744B2, “Heterocyclic nuclear hormone receptor modulators” (AbbVie Inc., priority 2012, dated 2015).
Where two headings read alike, the source gives them in different places.

What was measured:
IL-6 = assay: A549 Cell Assay to Measure Inflammation Markers (inhibition of IL-1β-induced IL-6); format: cell-based; conditions: A549 cells, read-out: A549 cell assay
In short: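 A549 cells pre-incubated 1 h with compound (10-point dilution, 0.1% DMSO final) in charcoal-stripped serum medium, then stimulated 4 h with 1 ng/mL IL-1β at 37° C. Supernatant IL-6 measured by MSD immunoassay; IC50 and Emax relative to 1 μM prednisolone as 100% inhibition; viability checked by CellTiter-Glo.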

OCN = assay: MG-63 Cell Assay to Measure Bone Markers (inhibition of Vitamin K/Vitamin D-induced OCN); format: cell-based; conditions: Homo sapiens, MG63 cells
Protocol: MG-63 Cell Assay to Measure Bone Markers
MG-63 cells were cultured in culture media containing ascorbic acid (DMEM/F12 supplemented with 10% FBS, 1% HEPES, 100 U/mL-100 μg/mL Pen-Strep, and 100 μg/mL of ascorbic acid) for, minimally, 1 week before study. MG-63 cells were seeded (4E4 cells/well) in 96-well assay plates in culture medium (200 μL/well.) After overnight culture in an incubator set to 37° C., 4.9% CO2, and 90% humidity, media was removed from adherent cells by aspiration and replaced with 100 μL/well assay medium, DMEM/F12 supplemented with 5% Charcoal Stripped Serum, 1% HEPES, 100 U/mL-100 μg/mL Pen-Strep, and 100 μg/mL of ascorbic acid. Compounds were prepared with DMSO and serial diluted (1:3, 1:4, or 1:5) with DMSO in dilution plate(s) to give 10 dilution points for each compound tested. Further dilution (1:250) of compound was made into assay medium and 50 μL/well diluted drug or DMSO/media control was applied to cells. After a 1 h pre-incubation in a temperature, CO2, and humidity controlled incubator, set to 37° C., 50 μL/well of 40 nM Vitamin K and 400 nM Vitamin D that were diluted in assay media were applied to plates. Assay plates, with a final volume of 200 μL/well and final concentrations of 0.1% DMSO, 10 nM Vitamin K, and 100 nM Vitamin D, were returned to incubator for overnight culture. Next, plates were spun at 183 g (1000 rpm in Beckman/Coulter Allegra 6KR centrifuge) for 10 min. Cell-free supenatant (150 μL/well) was collected and OCN was measured by MSD kit, following protocol of manufacturer, and using MSD SECTOR Imager 6000 instrument. Potency of drug to inhibit OCN was determined using the percent reduction of measured OCN in wells with drug compared to control wells without drug, and relative to (100% inhibition) positive control sample of 10 μM prednisolone. Results were represented as IC50 and Emax values. To verify that viable cell numbers were similar across plate(s), and not confounding compound IC50 data interpretation, the remaining 50 μL/well of cells and media (after removal of supernatant) were used to run Cell Titer-Glo Assay per directions of manufacturer.

[1] = biological target: T1, Glucocorticoid Receptor (GR) (Homo sapiens, UniProt P04150); assay: GR Fluorescence Polarization Assay (PolarScreen Glucocorticoid Receptor Competitor Assay, Red); conditions: fluorescence polarization binding ranges
T1 construct: purchased Invitrogen P2893
T1 sequence (P04150 1-777): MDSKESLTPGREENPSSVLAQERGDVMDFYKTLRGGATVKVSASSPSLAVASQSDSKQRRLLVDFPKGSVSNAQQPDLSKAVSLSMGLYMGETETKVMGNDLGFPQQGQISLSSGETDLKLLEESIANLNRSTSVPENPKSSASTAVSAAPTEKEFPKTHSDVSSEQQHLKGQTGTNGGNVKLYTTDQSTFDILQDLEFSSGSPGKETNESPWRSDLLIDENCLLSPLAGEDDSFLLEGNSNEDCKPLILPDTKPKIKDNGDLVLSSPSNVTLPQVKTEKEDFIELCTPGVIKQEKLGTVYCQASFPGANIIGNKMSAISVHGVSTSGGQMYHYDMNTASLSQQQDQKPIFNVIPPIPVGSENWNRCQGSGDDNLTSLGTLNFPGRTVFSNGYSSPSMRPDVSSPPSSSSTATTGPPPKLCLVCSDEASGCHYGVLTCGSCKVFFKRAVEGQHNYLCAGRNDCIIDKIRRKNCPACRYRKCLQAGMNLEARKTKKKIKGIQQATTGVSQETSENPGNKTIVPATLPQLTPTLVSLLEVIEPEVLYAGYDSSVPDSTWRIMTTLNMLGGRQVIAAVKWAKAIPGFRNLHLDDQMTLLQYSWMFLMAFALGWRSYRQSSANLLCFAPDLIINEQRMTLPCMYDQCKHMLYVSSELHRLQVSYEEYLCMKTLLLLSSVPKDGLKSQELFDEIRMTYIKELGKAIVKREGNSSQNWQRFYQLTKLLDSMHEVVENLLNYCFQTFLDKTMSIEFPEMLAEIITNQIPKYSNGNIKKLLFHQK
In short: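 Competitive fluorescence polarization using a red fluorescent glucocorticoid tracer and GR in kit buffer. Compounds in 1:4 DMSO serial dilution, incubated with tracer and receptor overnight at 4° C before polarization read-out.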

Compound	IC50 (IL-6; Homo sapiens) [nM]	IC50 (OCN) [nM]	IC50 [1] [nM]	IC50 (IL-6) [nM]
CC[C@@]12CC[C@@](O)(C(F)(F)F)C[C@@H]1CCCc1cc3c(cnn3-c3ccc(F)cc3)cc12 (racemic) [Example 1, (3S,4aS,12bR)-12b-Ethyl-9-(4-fluoro-phenyl)-3-trifluoromethyl-1,2,3,4,4a, 5,6,7,9,12b-decahydro-9,10-diaza-benzo[3,4]cyclohepta[1,2-f]inden-3-ol; compound with (3R,4aR,12bS)-12b-ethyl-9-(4-fluoro-phenyl)-3-trifluoromethyl-1,2,3,4,4a,5,6,7,9,12b-decahydro-9,10-diaza-benzo[3,4]cyclohepta[1,2-f]inden-3-ol]	< 100	< 100	< 100	
CCC[C@]1(O)CC[C@@]2(CC)c3cc4cnn(-c5ccc(F)cc5)c4cc3CCC[C@@H]2C1 (racemic) [Example 4, (3S,4aR,12bR)-12b-Ethyl-9-(4-fluoro-phenyl)-3-propyl-1,2,3,4,4a,5,6,7,9,12b-decahydro-9,10-diaza-benzo[3,4]cyclohepta[1,2-f]inden-3-ol; compound with (3R,4aS,12bS)-12b-ethyl-9-(4-fluoro-phenyl)-3-propyl-1,2,3,4,4a,5,6,7,9,12b-decahydro-9,10-diaza-benzo[3,4]cyclohepta[1,2-f]inden-3-ol]	100 to 1000	< 100	< 100	
COC[C@@]1(O)CC[C@@]2(Cc3ccccn3)c3cc4cnn(-c5ccc(F)cc5)c4cc3CCC[C@H]2C1 (racemic) [Example 11]	< 100	< 100	< 100	
CC[C@@]12CC[C@](O)(COC)C[C@@H]1CCCc1cc3[nH]ncc3cc12 (racemic) [Example 14, (3R,4aS,12bR)-12b-Ethyl-3-methoxymethyl-1,2,3,4,4a,5,6,7,9,12b-decahydro-9,10-diaza-benzo[3,4]cyclohepta[1,2-f]inden-3-ol; compound with (3S,4aR,12bS)-12b-ethyl-3-methoxymethyl-1,2,3,4,4a,5,6,7,9,12b-decahydro-9,10-diaza-benzo[3,4]cyclohepta[1,2-f]inden-3-ol]	> 10000	> 10000	< 100	
CC[C@@]12CC[C@@](O)(C(F)(F)F)C[C@@H]1CCCc1cc3c(cnn3-c3ccc(F)cc3)cc12 (single isomer, unassigned) [Example 3]	< 100	100 to 1000	< 100	
CCC[C@]1(O)CC[C@@]2(CC)c3cc4cnn(-c5ccc(F)cc5)c4cc3CCC[C@@H]2C1 (single isomer, unassigned) [Example 5]	100 to 1000	> 10000	< 100	
CC[C@]12CC[C@@](O)(C(F)(F)F)C[C@@H]1CCCc1cc3c(cnn3-c3ccc(S(C)(=O)=O)cc3)cc12 [Example 169, (3S,4aS,12bS)-12b-ethyl-9-(4-(methylsulfonyl)phenyl)-3-(trifluoromethyl)-1,2,3,4,4a,5,6,7,9,12b-decahydrobenzo[6,7]cyclohepta[1,2-f]indazol-3-ol]	1000 to 10000		100 to 1000	
CC[C@]12CC[C@@](OCC(N)=O)(C(F)(F)F)C[C@@H]1CCCc1cc3c(cnn3-c3ccc(F)cc3)cc12 [Example 171, 2-(((3S,4aS,12bS)-12b-Ethyl-9-(4-fluorophenyl)-3-(trifluoromethyl)-1,2,3,4,4a,5,6,7,9,12b-decahydrobenzo[6,7]cyclohepta[1,2-f]indazol-3-yl)oxy)acetamide]	< 100		< 100	
CC[C@]12CC[C@@](OCC(=O)O)(C(F)(F)F)C[C@@H]1CCCc1cc3c(cnn3-c3ccc(F)cc3)cc12 [Example 172, 2-(((3S,4aS,12bS)-12b-ethyl-9-(4-fluorophenyl)-3-(trifluoromethyl)-1,2,3,4,4a,5,6,7,9,12b-decahydrobenzo[6,7]cyclohepta[1,2-f]indazol-3-yl)oxy)acetic acid]	> 10000		< 100	
(2S,3R,4aS,12bS)-12b-ethyl-9-(4-fluorophenyl)-3-(trifluoromethyl)-1,2,3,4,4a,5,6,7,9,12b-decahydrobenzo[6,7]cyclohepta[1,2-f]indazole-2,3-diol [Example 120]			< 100	100 to 1000
